The record followed here is article PMC7316143 (Drug testing and analysis, 2018).

Holding throughout (type): biochemical
Test [1] deals with T1, SERT (Rattus norvegicus, UniProt P31652). Description: [3H]5-HT uptake inhibition at SERT in rat brain synaptosomes.
In test [2] the target is T2, DAT (Rattus norvegicus, UniProt P23977). The test is described as follows: [3H]MPP+ release at DAT in rat brain synaptosomes. The settings on record: for DAT/SERT ratio (release): (DAT EC50^-1)/(SERT EC50^-1), higher value indicates greater DAT selectivity; for Emax: read-out: Release at DAT % Emax.
T2 sequence (P23977 whole entry): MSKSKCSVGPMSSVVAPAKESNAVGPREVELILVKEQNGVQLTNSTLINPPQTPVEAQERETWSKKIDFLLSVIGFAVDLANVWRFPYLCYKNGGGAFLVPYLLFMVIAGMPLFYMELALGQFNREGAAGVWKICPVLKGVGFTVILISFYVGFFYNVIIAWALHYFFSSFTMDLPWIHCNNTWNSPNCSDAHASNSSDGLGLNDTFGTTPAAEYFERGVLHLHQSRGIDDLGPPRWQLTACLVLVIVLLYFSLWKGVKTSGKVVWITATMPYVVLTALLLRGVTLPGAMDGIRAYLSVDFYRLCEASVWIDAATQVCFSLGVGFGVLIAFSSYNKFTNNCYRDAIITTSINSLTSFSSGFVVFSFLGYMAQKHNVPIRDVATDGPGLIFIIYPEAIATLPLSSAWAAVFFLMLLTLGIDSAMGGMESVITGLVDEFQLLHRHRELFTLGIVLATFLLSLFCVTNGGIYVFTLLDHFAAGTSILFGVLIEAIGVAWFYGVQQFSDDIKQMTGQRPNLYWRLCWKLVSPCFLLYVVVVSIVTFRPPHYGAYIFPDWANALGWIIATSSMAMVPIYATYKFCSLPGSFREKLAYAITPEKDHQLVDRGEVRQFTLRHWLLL
The target in test [3] is T1, SERT. The test is described as follows: [3H]5-HT release at SERT in rat brain synaptosomes. As to conditions: for Emax: read-out: Release at SERT % Emax.
The target of test [4] is T2, DAT. Description: [3H]dopamine uptake inhibition at DAT in rat brain synaptosomes. As to conditions: for DAT/SERT ratio (uptake inhibition): (DAT IC50^-1)/(SERT IC50^-1), higher value indicates greater DAT selectivity; for IC50: [3H]Dopamine uptake at DAT IC50, rat caudate synaptosomes, 5 nM [3H]dopamine, mean ± SD, N=3.
For test [5], the target named is T3, NET (Rattus norvegicus, UniProt Q63380). Description: [3H]MPP+ release at NET in rat brain synaptosomes. The settings on record: for Emax: read-out: Release at NET % Emax.
T3 sequence (Q63380 1-617): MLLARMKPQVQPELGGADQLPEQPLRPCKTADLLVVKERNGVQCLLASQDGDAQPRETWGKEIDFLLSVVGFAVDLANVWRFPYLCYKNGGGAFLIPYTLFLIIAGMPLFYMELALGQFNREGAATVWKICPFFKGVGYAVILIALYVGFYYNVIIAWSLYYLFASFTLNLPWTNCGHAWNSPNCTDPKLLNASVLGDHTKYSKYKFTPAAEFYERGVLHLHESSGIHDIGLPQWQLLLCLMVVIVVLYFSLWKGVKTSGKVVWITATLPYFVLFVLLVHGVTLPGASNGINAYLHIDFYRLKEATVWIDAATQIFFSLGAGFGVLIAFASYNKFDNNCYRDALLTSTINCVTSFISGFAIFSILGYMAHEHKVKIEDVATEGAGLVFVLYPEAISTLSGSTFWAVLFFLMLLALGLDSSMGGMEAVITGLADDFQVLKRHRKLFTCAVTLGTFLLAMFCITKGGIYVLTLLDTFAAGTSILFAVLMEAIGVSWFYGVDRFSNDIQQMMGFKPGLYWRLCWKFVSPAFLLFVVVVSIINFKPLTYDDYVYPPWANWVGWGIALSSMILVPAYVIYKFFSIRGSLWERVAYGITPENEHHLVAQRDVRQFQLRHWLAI
Test [6] has as its target T3, NET. Description: [3H]norepinephrine uptake inhibition at NET in rat brain synaptosomes. The settings on record: [3H]Norepinephrine uptake at NET IC50, rat brain synaptosomes, 10 nM [3H]norepinephrine; mean ± SD, N=3.

Where only a bound is given, the exact number is not on record here.

T1 sequence (P31652 whole entry): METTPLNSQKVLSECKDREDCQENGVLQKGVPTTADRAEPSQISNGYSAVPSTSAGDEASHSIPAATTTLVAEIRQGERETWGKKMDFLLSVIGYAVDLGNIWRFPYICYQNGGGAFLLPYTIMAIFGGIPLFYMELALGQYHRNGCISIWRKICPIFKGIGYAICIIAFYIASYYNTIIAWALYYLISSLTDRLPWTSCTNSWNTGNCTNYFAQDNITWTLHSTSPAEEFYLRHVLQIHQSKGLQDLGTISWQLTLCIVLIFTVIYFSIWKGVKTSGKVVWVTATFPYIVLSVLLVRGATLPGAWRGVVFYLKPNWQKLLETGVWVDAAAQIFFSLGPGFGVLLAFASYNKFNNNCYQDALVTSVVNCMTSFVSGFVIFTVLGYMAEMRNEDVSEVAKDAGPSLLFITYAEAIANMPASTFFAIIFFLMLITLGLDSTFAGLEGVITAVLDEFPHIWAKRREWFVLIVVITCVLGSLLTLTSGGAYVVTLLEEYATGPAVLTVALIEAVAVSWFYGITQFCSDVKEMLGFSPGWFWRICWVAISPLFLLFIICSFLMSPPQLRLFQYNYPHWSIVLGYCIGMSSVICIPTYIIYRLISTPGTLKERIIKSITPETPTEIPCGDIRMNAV

Consider `Cc1ccccc1C1OCCNC1C` (stereo not shown) [2-MPM, 3-Methyl-2-(2-methylphenyl)morpholine], for which the values for the IC50 at SERT [1], against DAT [4] and at NET [6] were 4010 ± 317 nM, 6590 ± 1310 nM and 2600 ± 633 nM, respectively. Moreover, the EC50 on DAT [2] was determined as 374 ± 38 nM; at SERT [3], 1760 ± 336 nM; at NET [5], 102 ± 12 nM. Besides, the “DAT/SERT ratio (release)” value at DAT [2] amounted to 4.7. The Emax was 104% at DAT [2], 101% on SERT [3] and 91% at NET [5]. The “DAT/SERT ratio (uptake inhibition)” value on DAT [4] is 0.6.

On to `Cc1cccc(C2OCCNC2C)c1` (stereo not shown) [3-MPM, 3-Methyl-2-(3-methylphenyl)morpholine], for which the IC50 on SERT [1] was > 10000 nM; against DAT [4], > 10000 nM; at NET [6], 5210 ± 1650 nM. Also, the EC50 at DAT [2] is 1320 ± 218 nM; on SERT [3], 5380 ± 947 nM; at NET [5] it was 509 ± 73 nM. Besides, the “DAT/SERT ratio (release)” value on DAT [2] worked out at 4.1. The Emax at DAT [2] is 110%; on SERT [3], 111%; on NET [5], 90%.

As to `Cc1ccc(C2OCCNC2C)cc1` (stereo not shown) [4-MPM, 3-Methyl-2-(4-methylphenyl)morpholine], the IC50 came to 408 ± 17 nM against SERT [1], 1930 ± 207 nM at DAT [4] and 1930 ± 392 nM against NET [6]. Moreover, the “fold more potent than 2-MPM and phenmetrazine at SERT (uptake inhibition)” value on SERT [1] (relative to 2-MPM and phenmetrazine) is recorded as ~10 fold. Moreover, the EC50 at DAT [2] is 227 ± 30 nM; on SERT [3], 86 ± 12 nM; at NET [5], 62 ± 9 nM. Further, the “DAT/SERT ratio (release)” value on DAT [2] came out at 0.4. Further, the Emax is 99% at DAT [2], 88% at SERT [3] and 90% at NET [5]. Besides, the “DAT/SERT ratio (uptake inhibition)” value at DAT [4] is 0.2. For the same compound, the “fold more potent than 2-MPM at DAT (uptake inhibition)” value on DAT [4] (relative to 2-MPM) is “about 3.5 fold”.

Consider `CC1NCCOC1c1ccccc1` (stereo not shown) [Phenmetrazine, 3-methyl-2-phenylmorpholine, reference compound], for which the IC50 is 3570 ± 836 nM against SERT [1], 933 ± 57 nM at DAT [4] and 1160 ± 197 nM at NET [6]. For the same compound, the EC50 is 70 ± 9 nM on DAT [2], > 10000 nM on SERT [3] and 29 ± 4 nM at NET [5]. For the same compound, the Emax on DAT [2] was 101%; at NET [5], 95%. For the same compound, at SERT [3] (rat brain synaptosomes), the “releaser activity at SERT (in words)” value is reported as “negligible activity”.
